Measurements reported in patent US11597724B2, “Herbicidally active 3-phenylisoxazoline-5-carboxamides of tetrahydro and dihydrofuran carboxylic acids and esters” (Bayer Aktiengesellschaft, priority 2017, dated 2023).

Assays:
Type in all cases: in vivo
[1] = tested on: Abutilon theophrasti; experiment: Pre-emergence herbicidal activity against ABUTH; details: dosage 80 g/ha
Source text: (§1) 1. Pre-Emergence Herbicidal Action and Crop Plant Compatibility Seeds of monocotyledonous and dicotyledonous weed plants and crop plants are placed in plastic or wood fiber pots and covered with soil. The compounds of the invention, formulated in the form of wettable powders (WP) or as emulsion concentrates (EC), are then applied onto the surface of the covering soil as aqueous suspension or emulsion with addition of 0.5% additive at a water application rate of 600 l/ha (converted). After the treatment, the pots are placed in a greenhouse and kept under good growth conditions for the trial plants. After about 3 weeks, the effect of the preparations is scored visually in comparison with untreated controls as percentages. For example, 100% activity=the plants have died, 0% activity=like control plants. ABUTH: Abutilon theophrasti ALOMY: Alopecurus myosuroides

[2] = tested on: Echinochloa crus-galli; experiment: Pre-emergence herbicidal activity against ECHCG; details: dosage 80 g/ha, scored visually after about 3 weeks vs untreated controls (100% = plants have died, 0% = like control plants); for pest or weed control at 80 g/ha: Echinochloa crus-galli, 504 h
Source text: as §1, with “ECHCG: Echinochloa crus-galli HORMU: Hordeum murinum” for “ABUTH: Abutilon theophrasti ALOMY: Alopecurus myosuroides”

[3] = tested on: Lolium rigidum; experiment: Pre-emergence herbicidal activity against LOLRI; details: dosage 80 g/ha
Source text: as §1, with “LOLRI: Lolium rigidum PHBPU: Pharbitis purpurea” for “ABUTH: Abutilon theophrasti ALOMY: Alopecurus myosuroides”

[4] = tested on: Hordeum murinum; experiment: Pre-emergence herbicidal activity against HORMU; details: dosage 80 g/ha
Source text: as §1, with “ECHCG: Echinochloa crus-galli HORMU: Hordeum murinum” for “ABUTH: Abutilon theophrasti ALOMY: Alopecurus myosuroides”

SMILES	Pre-emergence herbicidal activity against ABUTH in % [1] [%]	pest or weed control at 80 g/ha [2] [%]	further results
COC(=O)[C@H]1C[C@@H](NC(=O)C2(OC)CC(c3ccccc3)=NO2)CO1 (relative stereo) [I-14, methyl cis-4-[(5-methoxy-3-phenyl-4H-isoxazole-5-carbonyl)amino]tetrahydrofuran-2-carboxylate]	100		
C=C[C@]1(C(=O)N[C@H]2CO[C@@H](C(=O)OC)C2)CC(c2cc(F)cc(F)c2)=NO1 (mixture of isomers) [I-10, methyl cis-4-[[(5S)-3-(3,5-difluorophenyl)-5-vinyl-4H-isoxazole-5-carbonyl]amino]tetrahydrofuran-2-carboxylate]	100	100	pest or weed control at 80 g/ha ([3]; Lolium rigidum, 504 h): 100%; pest or weed control at 80 g/ha ([4]; Hordeum murinum, 504 h): 100%
COC(=O)[C@H]1C[C@@H](NC(=O)C2(C(F)(F)F)CC(c3cc(F)cc(F)c3)=NO2)CO1 (relative stereo) [I-06, methyl cis-4-[[3-(3,5-difluorophenyl)-5-(trifluoromethyl)-4H-isoxazole-5-carbonyl]amino]tetrahydrofuran-2-carboxylate]	100	80	
COC(=O)[C@H]1C[C@@H](NC(=O)[C@@]2(C)CC(c3cc(F)cc(F)c3)=NO2)CO1 (mixture of isomers) [I-09, methyl cis-4-[[(5R)-3-(3,5-difluorophenyl)-5-methyl-4H-isoxazole-5-carbonyl]amino]tetrahydrofuran-2-carboxylate]	100	90	
C=C[C@]1(C(=O)N[C@H]2CO[C@@H](C(=O)OC)C2)CC(c2cc(F)cc(F)c2)=NO1 (single isomer, unassigned) [I-11]	80		Pre-emergence herbicidal activity against ECHCG in % [2]: 100%; Pre-emergence herbicidal activity against LOLRI in % [3]: 100%; Pre-emergence herbicidal activity against HORMU in % [4]: 100%
COC(=O)[C@H]1C[C@@H](NC(=O)C2(C)CC(c3cc(C)cc(Br)c3)=NO2)CO1 (relative stereo) [I-04, methyl cis-4-[[3-(3-bromo-5-methylphenyl)-5-methyl-4H-isoxazole-5-carbonyl]amino]tetrahydrofuran-2-carboxylate]	100		
COC(=O)[C@H]1C[C@@H](NC(=O)C2(OC)CC(c3cc(C)cc(Br)c3)=NO2)CO1 (relative stereo) [I-08, methyl cis-4-[[3-(3-bromo-5-methylphenyl)-5-methoxy-4H-isoxazole-5-carbonyl]amino]tetrahydrofuran-2-carboxylate]	100		
